Results taken from patent US7582803B2 (Amgen Inc., priority 2005, dated 2009).

Target: T1, human GPR40 (Homo sapiens, UniProt O14842)
T1 construct: expressed in transfected cells; host or cells: CHO cells
Experiment: Cell-based aequorin assay
Details: CHO cells stably transfected with GPR40 and aequorin; 0.01% HSA; aequorin luminescence; read-out: Relative EC50
Protocol: Cell-based aequorin assays were employed to characterize the modulatory activity of compounds on the GPR40 signaling pathway. In an exemplary assay, CHO cells were stably transfected with both GPR40 and Aequorin (Euroscreen). Cells were detached from the tissue culture dish with 2 mL of trypsin (0.25% (w/v)). Trypsinization was halted with 28 mL of Hanks Buffered Salt Solution containing 20 mM Hepes (H/HBSS) and 0.01% fatty acid-free human serum albumin (HSA). Coelantrazine is added to 1 ug/mL, and the cells were incubated for 2 hours at room temperature. Compounds were dissolved in DMSO for preparation of 10 mM stock solutions. Compounds were diluted in H/HBSS containing 0.01% HSA. Serial dilutions of the test compounds were prepared to determine dose response.
Aequorin luminescence measurements were made using an EG&G Berthold 96-well luminometer, and the response was measured over a 20 second interval after cells and compounds were mixed. The maximum relative light units was plotted to determine dose response. The EC50 (effective concentration to reach 50% maximal response) was determined from the dose response plot.
Table 1 presents representative data (EC50 values) obtained for exemplary compounds of the invention for the relative activation of human GPR40. […]

T1 sequence (O14842 whole entry): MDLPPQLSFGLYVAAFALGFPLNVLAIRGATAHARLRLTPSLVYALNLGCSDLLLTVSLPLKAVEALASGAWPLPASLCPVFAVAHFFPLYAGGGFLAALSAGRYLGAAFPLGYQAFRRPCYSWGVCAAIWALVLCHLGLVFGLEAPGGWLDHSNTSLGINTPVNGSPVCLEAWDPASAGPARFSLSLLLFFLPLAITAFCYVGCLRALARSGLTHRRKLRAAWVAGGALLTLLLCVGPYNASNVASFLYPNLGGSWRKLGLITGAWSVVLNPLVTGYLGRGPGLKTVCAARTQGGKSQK

Row | EC50 | SMILES
1 | 1 to 10 µM | CC#C[C@@H](CC(=O)O)c1ccc(OC2CCc3c(-c4cccc(OCC)c4)cccc32)cc1 (stereo partly drawn) [Example 9, (3S)-3-{4-[4-(3-Ethoxy-phenyl)-indan-1-yloxy]-phenyl}-hex-4-ynoic acid]
2 | 0.01 to 0.1 µM | CC#C[C@@H](CC(=O)O)c1ccc(OC2CCc3cc(-c4cccs4)ccc32)cc1 (stereo partly drawn) [Example 4, (3S)-3-[4-(5-Thiophen-2-yl-indan-1-yloxy)-phenyl]-hex-4-ynoic acid]
3 | 0.01 to 0.1 µM | CC1(C)CCC(C)(C)c2cc(COc3ccc([C@H](CC(=O)O)c4ncco4)cc3)ccc21 [Example 82, (S)-3-Oxazol-2-yl-3-[4-(5,5,8,8-tetramethyl-5,6,7,8-tetrahydro-naphthalen-2-ylmethoxy)-phenyl]-propionic acid]
4 | 1 to 10 µM | Cc1cnc(C(CC(=O)O)c2ccc(OC3CCc4cc(Cl)ccc43)cc2)o1 (racemic) [Example 34, (+/−)-3-(4-(5-Chloro-2,3-dihydro-1H-inden-1-yloxy)phenyl)-3-(5-methyloxazol-2-yl)propanoic acid]
5 | 0.1 to 1 µM | CC1(C)CCC(C)(C)c2cc(COc3ccc([C@H](CC(=O)O)c4ccc(F)cc4)cc3)ccc21 [Example 89, (S)-3-(4-Fluorophenyl)-3-(4-((5,5,8,8-tetramethyl-5,6,7,8-tetrahydronaphthalen-2-yl)methoxy)phenyl)propanoic acid]
6 | 0.1 to 1 µM | CCC1(CC)CCC(C)(C)c2ccc(COc3ccc([C@H](CC(=O)O)c4nccn4C)cc3)cc21 [Example 88, (S)-3-(4-((8,8-Diethyl-5,5-dimethyl-5,6,7,8-tetrahydronaphthalen-2-yl)methoxy)phenyl)-3-(1-methyl-1H-imidazol-2-yl)propanoic acid]
7 | 0.1 to 1 µM | Cc1cnc(C(CC(=O)O)c2ccc(OC3Cc4ccccc4C3)cc2)o1 (stereo not drawn) [Example 51, 3-(4-(2,3-Dihydro-1H-inden-2-yloxy)phenyl)-3-(5-methyloxazol-2-yl)propanoic acid]
8 | 0.01 to 0.1 µM | CC#C[C@@H](CC(=O)O)c1ccc(OC2CCc3cc(-c4ccc(C(F)(F)F)cc4)ccc32)cc1 (stereo partly drawn) [Example 1]
9 | 1 to 10 µM | CC1(C)CCC(C)(C)c2cc(COc3ccc([C@@H](CC(=O)O)c4ccc(F)cc4)cc3)ccc21 [Example 90, (R)-3-(4-Fluorophenyl)-3-(4-((5,5,8,8-tetramethyl-5,6,7,8-tetrahydronaphthalen-2-yl)methoxy)phenyl)propanoic acid]
10 | 0.1 to 1 µM | O=C(O)CC(c1ccc(OC2Cc3ccccc3C2)cc1)c1cc(F)cc(F)c1 (racemic) [Example 36, (+/−)3-(3,5-Difluorophenyl)-3-(4-(2,3-dihydro-1H-inden-2-yloxy)phenyl)propanoic acid]

Tested on: islet cells
Experiment: Insulin secretion assay, human islet cells
Type: cell-based
Details: KRBH with 11.2 mM glucose, insulin by SPA, read-out: EC50, stimulation of insulin secretion from islet cells
Protocol: Human islets were isolated from cadaveric donors. Islets were treated with trypsin (0.25% (w/v) and cells were seeded in 96-well plates containing 3,000 cells per well. Cells were cultured in Roswell Park Memorial Institute (RMPI) media containing 10% fetal bovine serum.
For determination of insulin secretion, media was removed from islet cells and replaced with Krebs-Ringer bicarbonate buffer containing 10 mM HEPES (KRBH) and 2 mM glucose. After one hour incubation, media was replaced with KRBH containing 11.2 mM glucose and test compounds. Insulin released into the medium from the islet cells was measured using scintillation proximity assay (SPA).

Row | EC50 | SMILES
11 | < 1 µM | CC#C[C@@H](CC(=O)O)c1ccc(OC2CCc3c(-c4cccc(OCC)c4)cccc32)cc1 (stereo partly drawn) [Example 9, (3S)-3-{4-[4-(3-Ethoxy-phenyl)-indan-1-yloxy]-phenyl}-hex-4-ynoic acid]
12 | < 1 µM | CC#C[C@@H](CC(=O)O)c1ccc(OC2CCc3cc(-c4cccs4)ccc32)cc1 (stereo partly drawn) [Example 4, (3S)-3-[4-(5-Thiophen-2-yl-indan-1-yloxy)-phenyl]-hex-4-ynoic acid]
